Measurements taken from PubChem BioAssay (NCI).
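Results reflect a 48-hour exposure of cells in 96-well plates to compound at five concentrations. Here, GI50 denotes the concentration required for 50% inhibition of growth. TGI: concentration producing complete growth inhibition.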

Assays:
Assay in all cases: NCI tumour cell line growth inhibition, 48 h
KM12 colon = test system: KM12 colon
SNB-75 CNS = test system: SNB-75 CNS
UO-31 renal = test system: UO-31 renal
SK-OV-3 ovarian = test system: SK-OV-3 ovarian
NCI/ADR-RES ovarian = test system: NCI/ADR-RES ovarian
SF-539 CNS = test system: SF-539 CNS
PC-3 prostate = test system: PC-3 prostate
OVCAR-4 ovarian = test system: OVCAR-4 ovarian
SW-620 colon = test system: SW-620 colon
SK-MEL-28 melanoma = test system: SK-MEL-28 melanoma
OVCAR-5 ovarian = test system: OVCAR-5 ovarian
HCT-15 colon = test system: HCT-15 colon
CAKI-1 renal = test system: CAKI-1 renal
COLO 205 colon = test system: COLO 205 colon
A498 renal = test system: A498 renal
HT29 colon = test system: HT29 colon
ACHN renal = test system: ACHN renal
MDA-MB-231 breast = test system: MDA-MB-231 breast
DU-145 prostate = test system: DU-145 prostate
NCI-H460 lung = test system: NCI-H460 lung
SK-MEL-5 melanoma = test system: SK-MEL-5 melanoma
SF-295 CNS = test system: SF-295 CNS
SN12C renal = test system: SN12C renal
786-0 renal = test system: 786-0 renal
HCC-2998 colon = test system: HCC-2998 colon
NCI-H226 lung = test system: NCI-H226 lung
UACC-62 melanoma = test system: UACC-62 melanoma
TK-10 renal = test system: TK-10 renal
HCT-116 colon = test system: HCT-116 colon
MALME-3M melanoma = test system: MALME-3M melanoma
SK-MEL-2 melanoma = test system: SK-MEL-2 melanoma
EKVX NSCLC = test system: EKVX NSCLC
UACC-257 melanoma = test system: UACC-257 melanoma
HOP-92 NSCLC = test system: HOP-92 NSCLC
NCI-H23 lung = test system: NCI-H23 lung

Structure (SMILES)	TGI (UO-31 renal) [µM]	TGI (SK-OV-3 ovarian) [µM]	TGI (NCI/ADR-RES ovarian) [µM]	TGI (SF-539 CNS) [µM]	TGI (PC-3 prostate) [µM]	TGI (OVCAR-4 ovarian) [µM]	TGI (SK-MEL-28 melanoma) [µM]	TGI (OVCAR-5 ovarian) [µM]	TGI (HCT-15 colon) [µM]	TGI (COLO 205 colon) [µM]	TGI (A498 renal) [µM]	TGI (HT29 colon) [µM]	TGI (ACHN renal) [µM]	TGI (MDA-MB-231 breast) [µM]	TGI (TK-10 renal) [µM]	also measured
Cc1cn2c(/C=N/N=C(N)N)c(-c3ccc([N+](=O)[O-])cc3)nc2s1	3.37	3.14	> 100	3.05	2.73	0.316	3.05	2.14	2.77	1.97	3.01	2.67	2.82	–	–	TGI (KM12 colon): 1.72 µM; TGI (SNB-75 CNS): 1.87 µM; TGI (SW-620 colon): 0.331 µM; TGI (CAKI-1 renal): 6.57 µM
NC(N)=N/N=C/c1c(-c2ccc(Cl)c([N+](=O)[O-])c2)nc2sccn12	3.05	–	> 100	3.27	3.11	4.49	27.8	3.12	3.5	2.61	3.14	2.8	3.15	3.24	3.16	TGI (DU-145 prostate): 3.17 µM; TGI (NCI-H460 lung): 3.3 µM; TGI (SK-MEL-5 melanoma): 3.26 µM; TGI (SF-295 CNS): 3.47 µM; TGI (SN12C renal): 3.29 µM; TGI (786-0 renal): 3.15 µM; TGI (HCC-2998 colon): 2.94 µM; TGI (NCI-H226 lung): 6.23 µM; TGI (UACC-62 melanoma): 3.27 µM; TGI (HCT-116 colon): 2.25 µM
O=C1NC(=Nc2ccc(O)cc2)S/C1=C\c1cccs1	–	> 100	> 100	–	–	> 100	> 100	–	–	> 100	–	> 100	–	> 100	> 100	GI50 (MDA-MB-231 breast): > 100 µM; GI50 (SK-OV-3 ovarian): > 100 µM; GI50 (NCI/ADR-RES ovarian): > 100 µM; GI50 (MALME-3M melanoma): > 100 µM; TGI (MALME-3M melanoma): > 100 µM; GI50 (SK-MEL-2 melanoma): > 100 µM; TGI (SK-MEL-2 melanoma): > 100 µM; GI50 (EKVX NSCLC): > 100 µM; TGI (EKVX NSCLC): > 100 µM; GI50 (OVCAR-4 ovarian): > 100 µM; GI50 (SK-MEL-28 melanoma): > 100 µM; GI50 (UACC-257 melanoma): > 100 µM; TGI (UACC-257 melanoma): > 100 µM; GI50 (COLO 205 colon): > 100 µM; GI50 (HOP-92 NSCLC): > 100 µM; TGI (HOP-92 NSCLC): > 100 µM; GI50 (NCI-H23 lung): > 100 µM; TGI (NCI-H23 lung): > 100 µM; GI50 (HT29 colon): > 100 µM; GI50 (TK-10 renal): > 100 µM
